Series [1] has as its system Quail. The following applies: oral; cited from earlier work.
Series [2] has as its system Mouse. The following applies: in vivo, sc; cited from earlier work.
A short description of series [3]: Solubility test (saturation in distilled water, liquid chromatography). Format: physicochemical. The following applies: for Solubility: distilled water to saturation, based on the amount of amlodipine. The procedure:
The measurement was performed according to the procedure described in the Korean Pharmacopoeia (Korean Ministry of Health and Welfare, General principle of medical supplies, Vol. 1, Clause 29, the 7th revision) which comprises the steps of dissolving each compound in distilled water to saturation, analyzing the saturated solution with liquid chromatography, and measuring the dissolved amount of each compound based on the amount of amlodipine.

Series [4] in a line: Stability test (storage at 55° C., about 50% relative humidity). As to conditions: relative humidity about 50%; for time-dependent stability (in words): up to 4 weeks. Also on record: remaining amount of active amlodipine: unit not given here. Format: physicochemical. How it is done:
Specifically, each compound was stored at 55° C., a relative humidity of about 50%, and after 1, 2, 3 and 4 weeks, the remaining amount of active amlodipine was determined with a liquid chromatography.

The nature of series [5]: Non-hygroscopicity test (moisture content). Format: physicochemical. As to conditions: for moisture content, Condition 2: 30° C. under 95% relative humidity for 3 days; for moisture content, Condition 1: 37° C. under 75% relative humidity for 24 hours; for Initial moisture: before exposure. How it is done: When a solid form of a drug is to be formulated, it is important that the drug is not hygroscopic. Accordingly, the hygroscopicity of the inventive amlodipine camsylate was measured and compared with that of amlodipine besylate.
Each compound was exposed to two conditions: 37° C. under 75% relative humidity for 24 hours (condition 1) and 30° C. under 95% relative humidity for 3 days (condition 2), and then, the moisture content of each compound was measured according to the method described in Korean Patent Publication No. 1995-7228.

The test system of series [6] is Rat. As to conditions: oral; cited from earlier work.
The test system of series [7] is Cat. As to conditions: cutaneous; cited from earlier work.
For series [8], the system named is Wild-birds. The following applies: oral; cited from earlier work.
The conditions of series [9]: in a solution; cited from earlier work.

≈ marks a conversion by molar mass, not a printed value. Where two headings read alike, the source gives them in different places.

In the case of `CC1(C)C2CCC1(CS(=O)(=O)O)C(=O)C2` (racemic) [(±)-10-Camphor sulfonic aicd, (±)-10-camphor sulfonic acid], the LD50 result in [1] is on record as “LD50 > 316 mg/kg”.
In the case of `CC1(C)C2CC[C@@]1(CS(=O)(=O)O)C(=O)C2` [(1S)-(+)-10-Camphor sulfonic acid, (1S)-(+)-10-camphor sulfonic acid], the LD50 entry in series [2] is “LD50 2502 mg/kg”.
On to `CCOC(=O)C1=C(COCCN)NC(C)=C(C(=O)OC)C1c1ccccc1Cl` (stereo not drawn) [Amlodipine besylate, amlodipine benzenesulfonate, reference compound], for which the Solubility in series [3] (distilled water, water, thermodynamic from solid, read-out: Solubility) was found to be 1400 µg/mL. The “remaining amount of active amlodipine” value in [4] (1 week) is on record as 0.992; in [4] (2 weeks), 0.996; in series [4] (3 weeks) it was 0.993; in [4] (4 weeks), 0.993; in [4] (Initial) it was 1. Besides, the “time-dependent stability (in words)” value in [4] was “slight but significant degradation after 1 week”. Moreover, the “moisture content, Condition 2” value in series [5] stood at 0.15%. Further, the “moisture content, Condition 1” value in series [5] was 0.05%. In addition, the Initial moisture in series [5] is 0.05%.
As to `CCOC(=O)C1=C(COCCN)NC(C)=C(C(=O)OC)C1c1ccccc1Cl` [Amlodipine camsylate of Example 1 (S), Amlodipine Camsylate], the Solubility in [3] amounted to 1225 µg/mL (≈ 3 mM). In addition, the “Saturation pH” value in series [3] (saturated solution in distilled water) stood at 6.0. In addition, the “remaining amount of active amlodipine” value in [4] (1 week) is 1; in series [4] (2 weeks), 0.998; in series [4] (3 weeks) it was 1; in series [4] (4 weeks), 1; in [4] (Initial), 1. The “moisture content, Condition 2” value in series [5] turned out to be 0.15%. Moreover, the “moisture content, Condition 1” value in series [5] is listed as 0.05%. This compound also returned an Initial moisture in [5] of 0.05%.
The compound `CCOC(=O)C1=C(COCCN)NC(C)=C(C(=O)OC)C1c1ccccc1Cl` [Amlodipine camsylate of Example 2 (R), Amlodipine Camsylate] gave a Solubility in [3] of 1250 µg/mL (≈ 3.06 mM). The “remaining amount of active amlodipine” value in series [4] (1 week) turned out to be 1; in series [4] (2 weeks), 1; in [4] (3 weeks), 1.002; in [4] (4 weeks), 1; in series [4] (Initial), 1. In series [5], the “moisture content, Condition 2” value is 0.15%. In addition, the “moisture content, Condition 1” value in series [5] is given as 0.05%. For the same compound, in series [5], the Initial moisture was 0.05%.
In the case of `CCOC(=O)C1=C(COCCN)NC(C)=C(C(=O)OC)C1c1ccccc1Cl` (stereo not drawn) [Amlodipine camsylate, amlodipine camsylate], the “time-dependent stability (in words)” value in [4] was “stable during the 4 weeks period”.
As to `O=S(=O)(O)c1ccccc1` [Benzene sulfonic acid], the LD50 entry in series [6] is on record as “LD50 890 μl/kg”; in series [8], “LD50 75 mg/kg”. In series [7], the LDLO entry is recorded as “LDLO 10 g/kg”.
As for amlodipine maleate, the “stability in solution (in words)” value in series [9] is given as “degrades in a solution within several weeks”.

As a reminder, the Solubility is how much of the substance goes into solution per volume.

The record behind these values is patent US6936625B2 (Hanmi Pharm. Co., Ltd., priority 2001, dated 2005).
